Where “and” joins values, the source holds several entries; their conditions need not be identical. Identical values can stand only once. Marks after values point to notes of the source that are not given here.
Experiments:
[1] = In vitro stability in human serum at 37 °C; assay type: in vitro ADME; details: at 24 h
Method: Aliquots (0.2 mL) were withdrawn at predefined intervals and analyzed using a paper chromatographic technique ([Rathmann et al., 2019]). Chromatographic separation was carried out using a Shimadzu system ([Shimadzu Corporation]) (Genzo Shimadzu Sr., Kyoto, Japan), comprising LC-9A pumps, a Rheodyne injector (Model 7125), and an ultraviolet spectrophotometer detector (SPD-6A, Shimadzu). The mobile phase consisted of acetonitrile and water (65:35) containing 0.1% trifluoroacetic acid, delivered at a flow rate of 1.0 mL/min. […] Separated fractions were collected for up to 12 min, and the radiochemical integrity was subsequently evaluated using a well-type NaI(Tl) ([Al Oraini, 2018]) detector linked to a single-channel analyzer.

[2] = In vivo biodistribution of [^99mTc]Tc-carvedilol in healthy Swiss albino mice; details: for [^99mTc]Tc-carvedilol percentages of injected dose per Gram organ: i.v. tail vein
Source text: For biodistribution and receptor occupancy studies, 24 healthy adult Swiss albino mice (12 males and 12 females, aged 10–12 weeks, weighing 25–30 g) were obtained from the Egyptian National Research Center. Mice outside the 25–30 g weight range were excluded to ensure consistency in the biodistribution outcomes. Prior to the study, animals were housed in groups of four with ad libitum access to food and water and underwent a 2-week acclimatization period. After this adaptation phase, the mice were randomly assigned to the study groups using the lot-drawing method.
Given ^99mTc’s physical half-life of approximately 6 h, shorter imaging and sampling intervals are generally preferred to maximize radioactive signal fidelity and minimize decay-related variability. At 24 h post-injection, the residual ^99mTc activity could fall below quantifiable thresholds, potentially compromising the precision of biodistribution data. To prevent this, all data collection was restricted to early post-injection intervals—specifically […]—when radioactivity levels remain within optimal detection ranges for gamma counting. By omitting the 24 h time point altogether, the study design ensured that the radiotracer signal would be robust enough to yield statistically reliable biodistribution profiles without being confounded by the isotope’s exponential decay. Additionally, prior pilot studies were conducted to empirically determine the time window during which the radiochemical integrity and quantification signal-to-noise ratio remained analytically valid. These informed the exclusion of late-phase sampling and reinforced confidence in the reliability of kinetic data collected within the defined 6 h observation window. Therefore, six mice were euthanized at each selected time point via standardized cervical dislocation performed by trained personnel in accordance with institutional animal care guidelines. The procedure followed the AVMA Guidelines for the Euthanasia of Animals ([Kirkwood, 2013]), ensuring it was rapid, humane, and reproducible. To ensure procedural consistency, all cervical dislocations were performed by the same experienced researcher, following pre-established protocols that involved correct animal positioning, anatomical landmark identification, and verification of death through cessation of heartbeat and respiration. Immediately postmortem, body weight was recorded, and blood was collected via cardiac puncture.
Organ harvesting included the collection of the heart, liver, lungs, kidneys, spleen, stomach, intestines, muscle (right leg), bone, and brain. Following dissection, tissues were gently rinsed with isotonic saline to remove residual blood, promptly weighed, kept at low temperatures, and immediately subjected to gamma counting to preserve radiochemical integrity and avoid post-collection decay artifacts. No storage or freezing was used to prevent degradation or leakage of [^99mTc]Tc-carvedilol. Sample processing occurred in a shielded, on-site laboratory adjacent to the dissection area, ensuring minimal delay—typically less than 2 to 3 minutes—between collection and measurement.
To ensure methodological rigor and reproducibility, both experimental and computational components of the study were supported by a structured statistical framework. A total of 24 healthy albino mice (12 males, 12 females), aged 10–12 weeks and weighing 25 ± 3 g, were selected based on uniform health status, age, and weight to minimize inter-animal variability. Animals were maintained under controlled laboratory conditions (12-h light/dark cycle, standardized humidity, and temperature) with unrestricted access to food and water. For biodistribution analysis, animals were randomly assigned to four experimental groups, each consisting of six mice, each representing a distinct post-injection time point (15, 30, 60, and 120 min). […]

COc1ccccc1OCC[N]1CC(COc2cccc3[nH]c4ccccc4c23)[O][99Tc]12(=[O])[O]C(COc1cccc3[nH]c4ccccc4c13)C[N]2CCOc1ccccc1OC (racemic) [[^99mTc]Tc-carvedilol]
serum stability [1]: > 92% | Residual [^99mTc]Tc-carvedilol percentages of injected dose per Gram in non-targeted organs ([2]; Blood row, 30 min post-injection): 96.021 ± 0.01 % ID/g | Residual [^99mTc]Tc-carvedilol percentages of injected dose per Gram in non-targeted organs ([2]; Blood row, 60 min post-injection): 92.710 ± 0.01 % ID/g | Residual [^99mTc]Tc-carvedilol percentages of injected dose per Gram in non-targeted organs ([2]; Blood row, 120 min post-injection): 94.008 ± 0.02 % ID/g | [^99mTc]Tc-carvedilol percentages of injected dose per Gram organ ([2]; Blood, 15 min post-injection): 19.895 ± 0.020 ^a % ID/g organ | [^99mTc]Tc-carvedilol percentages of injected dose per Gram organ ([2]; Blood, 30 min post-injection): 3.969 ± 0.052 % ID/g organ | [^99mTc]Tc-carvedilol percentages of injected dose per Gram organ ([2]; Blood, 60 min post-injection): 7.290 ± 0.052 % ID/g organ | [^99mTc]Tc-carvedilol percentages of injected dose per Gram organ ([2]; Blood, 120 min post-injection): 5.972 ± 0.131 % ID/g organ | [^99mTc]Tc-carvedilol percentages of injected dose per Gram organ ([2]; Bone, 15 min post-injection): 0.322 ± 0.035 % ID/g organ | [^99mTc]Tc-carvedilol percentages of injected dose per Gram organ ([2]; Bone, 30 min post-injection): 0.963 ± 0.215 % ID/g organ | [^99mTc]Tc-carvedilol percentages of injected dose per Gram organ ([2]; Bone, 60 min post-injection): 0.675 ± 0.215 % ID/g organ | [^99mTc]Tc-carvedilol percentages of injected dose per Gram organ ([2]; Bone, 120 min post-injection): 2.703 ± 0.019 % ID/g organ | Residual [^99mTc]Tc-carvedilol percentages of injected dose per Gram in non-targeted organs ([2]; Brain row, 15 min post-injection): 99.359 ± 0.01 % ID/g | Residual [^99mTc]Tc-carvedilol percentages of injected dose per Gram in non-targeted organs ([2]; Brain row, 30 min post-injection): 98.409 ± 0.03 % ID/g | Residual [^99mTc]Tc-carvedilol percentages of injected dose per Gram in non-targeted organs ([2]; Brain row, 60 min post-injection): 97.103 ± 0.01 % ID/g | Residual [^99mTc]Tc-carvedilol percentages of injected dose per Gram in non-targeted organs ([2]; Brain row, 120 min post-injection): 99.679 ± 0.02 % ID/g | [^99mTc]Tc-carvedilol percentages of injected dose per Gram organ ([2]; Brain, 15 min post-injection): 0.631 ± 0.020 % ID/g organ | [^99mTc]Tc-carvedilol percentages of injected dose per Gram organ ([2]; Brain, 30 min post-injection): 1.561 ± 0.008 % ID/g organ | [^99mTc]Tc-carvedilol percentages of injected dose per Gram organ ([2]; Brain, 60 min post-injection): 2.895 ± 0.391 % ID/g organ | [^99mTc]Tc-carvedilol percentages of injected dose per Gram organ ([2]; Brain, 120 min post-injection): 0.301 ± 0.110 % ID/g organ | Residual [^99mTc]Tc-carvedilol percentages of injected dose per Gram in non-targeted organs ([2]; Heart row, 15 min post-injection): 72.467 ± 0.02 ^a % ID/g | Residual [^99mTc]Tc-carvedilol percentages of injected dose per Gram in non-targeted organs ([2]; Heart row, 30 min post-injection): 92.707 ± 0.02 % ID/g | Residual [^99mTc]Tc-carvedilol percentages of injected dose per Gram in non-targeted organs ([2]; Heart row, 60 min post-injection): 97.838 ± 0.03 % ID/g | Residual [^99mTc]Tc-carvedilol percentages of injected dose per Gram in non-targeted organs ([2]; Heart row, 120 min post-injection): 96.414 ± 0.07 % ID/g | [^99mTc]Tc-carvedilol percentages of injected dose per Gram organ ([2]; Heart, 15 min post-injection): 27.533 % ID/g organ and 27.533 ± 0.931 % ID/g organ and 27.533 ± 0.931 ^a % ID/g organ | [^99mTc]Tc-carvedilol percentages of injected dose per Gram organ ([2]; Heart, 30 min post-injection): 7.273 ± 0.006 % ID/g organ | [^99mTc]Tc-carvedilol percentages of injected dose per Gram organ ([2]; Heart, 60 min post-injection): 2.161 ± 0.006 % ID/g organ | [^99mTc]Tc-carvedilol percentages of injected dose per Gram organ ([2]; Heart, 120 min post-injection): 3.516 ± 0.110 % ID/g organ | Residual [^99mTc]Tc-carvedilol percentages of injected dose per Gram in non-targeted organs ([2]; Intestines row, 15 min post-injection): 95.435 ± 0.09 % ID/g | Residual [^99mTc]Tc-carvedilol percentages of injected dose per Gram in non-targeted organs ([2]; Intestines row, 30 min post-injection): 96.612 ± 0.03 % ID/g | Residual [^99mTc]Tc-carvedilol percentages of injected dose per Gram in non-targeted organs ([2]; Intestines row, 60 min post-injection): 92.604 ± 0.04 % ID/g | Residual [^99mTc]Tc-carvedilol percentages of injected dose per Gram in non-targeted organs ([2]; Intestines row, 120 min post-injection): 94.643 ± 0.01 % ID/g | [^99mTc]Tc-carvedilol percentages of injected dose per Gram organ ([2]; Intestines, 15 min post-injection): 4.507 ± 0.521 % ID/g organ | [^99mTc]Tc-carvedilol percentages of injected dose per Gram organ ([2]; Intestines, 30 min post-injection): 3.358 ± 0.792 % ID/g organ | [^99mTc]Tc-carvedilol percentages of injected dose per Gram organ ([2]; Intestines, 60 min post-injection): 7.355 ± 0.792 % ID/g organ | [^99mTc]Tc-carvedilol percentages of injected dose per Gram organ ([2]; Intestines, 120 min post-injection): 5.347 ± 0.521 % ID/g organ | Residual [^99mTc]Tc-carvedilol percentages of injected dose per Gram in non-targeted organs ([2]; Kidneys row, 30 min post-injection): 67.207 ± 0.04 ^a % ID/g | Residual [^99mTc]Tc-carvedilol percentages of injected dose per Gram in non-targeted organs ([2]; Kidneys row, 60 min post-injection): 75.608 ± 0.01 % ID/g | Residual [^99mTc]Tc-carvedilol percentages of injected dose per Gram in non-targeted organs ([2]; Kidneys row, 120 min post-injection): 70.660 ± 0.05 % ID/g | [^99mTc]Tc-carvedilol percentages of injected dose per Gram organ ([2]; Kidneys, 15 min post-injection): 2.764 ± 0.012 % ID/g organ

— paper PMC12280724 (Frontiers in Pharmacology, 2025)
